# Measurements reported in ChEMBL document CHEMBL3885881, “DrugMatrix”.
# Species on record: Rattus norvegicus
# Assay: DrugMatrix - Regimen: Daily Repeat
# Format: toxicity, organism-based, Sprague-Dawley
# Design: regimen Daily Repeat, gender Male, age 6-8 weeks
# Conditions: in vivo; for BASOPHIL / EOSINOPHIL / ERYTHROCYTE COUNT / HEMATOCRIT / HEMOGLOBIN / LEUKOCYTE COUNT / LYMPHOCYTE / MEAN CORPUSCULAR HEMOGLOBIN / MEAN CORPUSCULAR HEMOGLOBIN CONCENTRATION / MEAN CORPUSCULAR VOLUME / MONOCYTE / NEUTROPHIL / PLATELET COUNT / ABSOLUTE BASOPHIL / ABSOLUTE EOSINOPHIL / ABSOLUTE LYMPHOCYTE / ABSOLUTE MONOCYTE / ABSOLUTE SEGMENTED NEUTROPHIL / NUCLEATED RED BLOOD CELLS: tissue Blood
# [1] = po, 50 mg/kg, 72 h, route oral GAVAGE, dose level Low, time 3 day, vehicle .5 % CMC
# [2] = po, 50 mg/kg, 72 h, tissue Plasma, route oral GAVAGE, dose level Low, time 3 day, vehicle .5 % CMC
# [3] = po, 50 mg/kg, 120 h, route oral GAVAGE, dose level Low, time 5 day, vehicle .5 % CMC
# [4] = po, 50 mg/kg, 120 h, tissue Plasma, route oral GAVAGE, dose level Low, time 5 day, vehicle .5 % CMC
# [5] = po, 1200 mg/kg, 72 h, route oral GAVAGE, dose level High, time 3 day, vehicle .5 % CMC
# [6] = po, 1200 mg/kg, 72 h, tissue Plasma, route oral GAVAGE, dose level High, time 3 day, vehicle .5 % CMC
# [7] = po, 1200 mg/kg, 120 h, route oral GAVAGE, dose level High, time 5 day, vehicle .5 % CMC
# [8] = po, 1200 mg/kg, 120 h, tissue Plasma, route oral GAVAGE, dose level High, time 5 day, vehicle .5 % CMC
# [9] = iv, 55 mg/kg, 72 h, dose level Low, time 3 day, vehicle 100 % SALINE
# [10] = iv, 55 mg/kg, 72 h, tissue Plasma, dose level Low, time 3 day, vehicle 100 % SALINE
# [11] = iv, 55 mg/kg, 120 h, dose level Low, time 5 day, vehicle 100 % SALINE
# [12] = iv, 55 mg/kg, 120 h, tissue Plasma, dose level Low, time 5 day, vehicle 100 % SALINE
molecule,measurement,setting,value
CCN1CCC[C@H]1CNC(=O)c1cc(S(N)(=O)=O)ccc1OC [LEVOSULPIRIDE],BASOPHIL,[1],0%
same,EOSINOPHIL,[1],0.33%
same,ERYTHROCYTE COUNT,[1],5.59 x10E6/uL
same,HEMATOCRIT,[1],33.77%
same,HEMOGLOBIN,[1],13.77 G/DL
same,LEUKOCYTE COUNT,[1],14.5 x10E3/uL
same,LYMPHOCYTE,[1],87%
same,MEAN CORPUSCULAR HEMOGLOBIN,[1],24.6 pg
same,MEAN CORPUSCULAR HEMOGLOBIN CONCENTRATION,[1],40.77 G/DL
same,MEAN CORPUSCULAR VOLUME,[1],60.4 fL
same,MONOCYTE,[1],1.67%
same,NEUTROPHIL,[1],11%
same,PLATELET COUNT,[1],1162.67 x10E3/uL
same,ALANINE AMINOTRANSFERASE,[2],41 u/L
same,ALBUMIN,[2],3.7 G/DL
same,ALKALINE PHOSPHATASE,[2],441.67 u/L
same,ASPARTATE AMINOTRANSFERASE,[2],64 u/L
same,BLOOD UREA NITROGEN,[2],13.33 mg/dL
same,CHLORIDE,[2],106.33 MEQ/L
same,CHOLESTEROL,[2],70.33 mg/dL
same,CREATINE PHOSPHOKINASE,[2],137 u/L
same,CREATININE,[2],0.5 mg/dL
same,GLUCOSE,[2],187.67 mg/dL
same,PHOSPHORUS,[2],11.53 mg/dL
same,POTASSIUM,[2],6.6 MEQ/L
same,SODIUM,[2],150.33 MEQ/L
same,TOTAL BILIRUBIN,[2],0.57 mg/dL
same,TOTAL PROTEIN,[2],6 G/DL
same,BASOPHIL,[3],0%
same,EOSINOPHIL,[3],0.33%
same,ERYTHROCYTE COUNT,[3],6.32 x10E6/uL
same,HEMATOCRIT,[3],37.23%
same,HEMOGLOBIN,[3],14.57 G/DL
same,LEUKOCYTE COUNT,[3],13.63 x10E3/uL
same,LYMPHOCYTE,[3],80.67%
same,MEAN CORPUSCULAR HEMOGLOBIN,[3],23.03 pg
same,MEAN CORPUSCULAR HEMOGLOBIN CONCENTRATION,[3],39.13 G/DL
same,MEAN CORPUSCULAR VOLUME,[3],58.9 fL
same,MONOCYTE,[3],2.67%
same,NEUTROPHIL,[3],16.33%
same,PLATELET COUNT,[3],1180.67 x10E3/uL
same,ALANINE AMINOTRANSFERASE,[4],42 u/L
same,ALBUMIN,[4],3.7 G/DL
same,ALKALINE PHOSPHATASE,[4],336 u/L
same,ASPARTATE AMINOTRANSFERASE,[4],62.33 u/L
same,BLOOD UREA NITROGEN,[4],13 mg/dL
same,CHLORIDE,[4],106 MEQ/L
same,CHOLESTEROL,[4],67.67 mg/dL
same,CREATINE PHOSPHOKINASE,[4],137.33 u/L
same,CREATININE,[4],0.57 mg/dL
same,GLUCOSE,[4],188.67 mg/dL
same,PHOSPHORUS,[4],10.97 mg/dL
same,POTASSIUM,[4],6.83 MEQ/L
same,SODIUM,[4],150.67 MEQ/L
same,TOTAL BILIRUBIN,[4],0.4 mg/dL
same,TOTAL PROTEIN,[4],5.97 G/DL
same,BASOPHIL,[5],0%
same,EOSINOPHIL,[5],0.5%
same,ERYTHROCYTE COUNT,[5],6.49 x10E6/uL
same,HEMATOCRIT,[5],38.15%
same,HEMOGLOBIN,[5],15.2 G/DL
same,LEUKOCYTE COUNT,[5],14.55 x10E3/uL
same,LYMPHOCYTE,[5],86%
same,MEAN CORPUSCULAR HEMOGLOBIN,[5],23.4 pg
same,MEAN CORPUSCULAR HEMOGLOBIN CONCENTRATION,[5],39.85 G/DL
same,MEAN CORPUSCULAR VOLUME,[5],58.75 fL
same,MONOCYTE,[5],0.5%
same,NEUTROPHIL,[5],13%
same,PLATELET COUNT,[5],1325.5 x10E3/uL
same,ALANINE AMINOTRANSFERASE,[6],42 u/L
same,ALBUMIN,[6],4 G/DL
same,ALKALINE PHOSPHATASE,[6],363 u/L
same,ASPARTATE AMINOTRANSFERASE,[6],58.33 u/L
same,BLOOD UREA NITROGEN,[6],16.67 mg/dL
same,CHLORIDE,[6],104 MEQ/L
same,CHOLESTEROL,[6],80 mg/dL
same,CREATINE PHOSPHOKINASE,[6],154.33 u/L
same,CREATININE,[6],0.6 mg/dL
same,GLUCOSE,[6],176.67 mg/dL
same,PHOSPHORUS,[6],12.6 mg/dL
same,POTASSIUM,[6],7.23 MEQ/L
same,SODIUM,[6],150 MEQ/L
same,TOTAL BILIRUBIN,[6],0.67 mg/dL
same,BASOPHIL,[7],0%
same,EOSINOPHIL,[7],0.5%
same,ERYTHROCYTE COUNT,[7],5.88 x10E6/uL
same,HEMATOCRIT,[7],35.5%
same,HEMOGLOBIN,[7],15 G/DL
same,LEUKOCYTE COUNT,[7],12.3 x10E3/uL
same,LYMPHOCYTE,[7],85.5%
same,MEAN CORPUSCULAR HEMOGLOBIN,[7],25.5 pg
same,MEAN CORPUSCULAR HEMOGLOBIN CONCENTRATION,[7],42.4 G/DL
same,MEAN CORPUSCULAR VOLUME,[7],60.25 fL
same,MONOCYTE,[7],4.5%
same,NEUTROPHIL,[7],9.5%
same,PLATELET COUNT,[7],1166 x10E3/uL
same,ALANINE AMINOTRANSFERASE,[8],43 u/L
same,ALBUMIN,[8],3.65 G/DL
same,ALKALINE PHOSPHATASE,[8],219.5 u/L
same,ASPARTATE AMINOTRANSFERASE,[8],64 u/L
same,BLOOD UREA NITROGEN,[8],16 mg/dL
same,CHLORIDE,[8],106.5 MEQ/L
same,CHOLESTEROL,[8],65.5 mg/dL
same,CREATINE PHOSPHOKINASE,[8],164 u/L
same,CREATININE,[8],0.6 mg/dL
same,GLUCOSE,[8],166.5 mg/dL
same,PHOSPHORUS,[8],11.95 mg/dL
same,POTASSIUM,[8],6.7 MEQ/L
same,SODIUM,[8],151.5 MEQ/L
same,TOTAL BILIRUBIN,[8],0.35 mg/dL
same,TOTAL PROTEIN,[8],6 G/DL
GADOPENTETATE DIMEGLUMINE,ABSOLUTE BASOPHIL,[9],0 CELLS/uL
same,ABSOLUTE EOSINOPHIL,[9],43.67 CELLS/uL
same,ABSOLUTE LYMPHOCYTE,[9],9839.33 CELLS/uL
same,ABSOLUTE MONOCYTE,[9],219.67 CELLS/uL
same,ABSOLUTE SEGMENTED NEUTROPHIL,[9],564 CELLS/uL
same,BASOPHIL,[9],0%
same,EOSINOPHIL,[9],0.33%
same,ERYTHROCYTE COUNT,[9],5.53 x10E6/uL
same,HEMOGLOBIN,[9],13.6 G/DL
same,LEUKOCYTE COUNT,[9],10.67 x10E3/uL
same,LYMPHOCYTE,[9],92.67%
same,MEAN CORPUSCULAR HEMOGLOBIN,[9],24.63 pg
same,MEAN CORPUSCULAR HEMOGLOBIN CONCENTRATION,[9],37.3 G/DL
same,MEAN CORPUSCULAR VOLUME,[9],66.07 fL
same,MONOCYTE,[9],2%
same,NEUTROPHIL,[9],5%
same,NUCLEATED RED BLOOD CELLS,[9],0 /100WBC
same,PLATELET COUNT,[9],1301 x10E3/uL
same,ALANINE AMINOTRANSFERASE,[10],40 u/L
same,ALKALINE PHOSPHATASE,[10],398.33 u/L
same,ASPARTATE AMINOTRANSFERASE,[10],87.67 u/L
same,CARBON DIOXIDE,[10],23.33 mmol/L
same,CHOLESTEROL,[10],81.33 mg/dL
same,CREATINE PHOSPHOKINASE,[10],415.67 u/L
same,CREATININE,[10],0.21 mg/dL
same,LACTATE DEHYDROGENASE,[10],589.67 u/L
same,POTASSIUM,[10],6.91 MEQ/L
same,SODIUM,[10],145.83 MEQ/L
same,TOTAL BILIRUBIN,[10],0.2 mg/dL
same,TOTAL PROTEIN,[10],6.1 G/DL
same,ABSOLUTE BASOPHIL,[11],0 CELLS/uL
same,ABSOLUTE EOSINOPHIL,[11],278.33 CELLS/uL
same,ABSOLUTE LYMPHOCYTE,[11],15424.33 CELLS/uL
same,ABSOLUTE MONOCYTE,[11],421.67 CELLS/uL
same,ABSOLUTE SEGMENTED NEUTROPHIL,[11],1375.67 CELLS/uL
same,BASOPHIL,[11],0%
same,ERYTHROCYTE COUNT,[11],5.85 x10E6/uL
same,HEMATOCRIT,[11],36.97%
same,HEMOGLOBIN,[11],14.03 G/DL
same,LEUKOCYTE COUNT,[11],17.5 x10E3/uL
same,LYMPHOCYTE,[11],88%
same,MEAN CORPUSCULAR HEMOGLOBIN,[11],24.07 pg
same,MEAN CORPUSCULAR HEMOGLOBIN CONCENTRATION,[11],37.97 G/DL
same,NEUTROPHIL,[11],8%
same,NUCLEATED RED BLOOD CELLS,[11],0 /100WBC
same,PLATELET COUNT,[11],1344.67 x10E3/uL
same,ALANINE AMINOTRANSFERASE,[12],53.33 u/L
same,ALBUMIN,[12],4.2 G/DL
same,ALKALINE PHOSPHATASE,[12],358.67 u/L
same,ASPARTATE AMINOTRANSFERASE,[12],83 u/L
same,BLOOD UREA NITROGEN,[12],16.67 mg/dL
same,CARBON DIOXIDE,[12],26.33 mmol/L
same,CHLORIDE,[12],106.67 MEQ/L
same,CHOLESTEROL,[12],68 mg/dL
same,CREATINE PHOSPHOKINASE,[12],219.67 u/L
same,CREATININE,[12],0.19 mg/dL
same,GLUCOSE,[12],172 mg/dL
same,LACTATE DEHYDROGENASE,[12],98 u/L
same,LIPASE,[12],10 u/L
same,PHOSPHORUS,[12],12.93 mg/dL
same,POTASSIUM,[12],6.64 MEQ/L
same,SODIUM,[12],146.2 MEQ/L
same,TOTAL BILIRUBIN,[12],0.2 mg/dL
same,TOTAL PROTEIN,[12],6.13 G/DL
same,URIC ACID,[12],2.37 mg/dL
